Test results reported in the NIST ThermoML archive (doi:10.1021/je200886j).

Assays:
[1] = 101 kPa, Liquid; for mass density: Pycnometric method
[2] = wn = mass fraction of the nth substance listed; conditions: 101 kPa, Liquid; for mass density: Pycnometric method

CCCCn1cc[n+](C)c1.F[B-](F)(F)F [1-butyl-3-methylimidazolium tetrafluoroborate]
[1]
Conditions	mass density [kg/m3]	viscosity [mPa·s]
298.15 K	1200.6	93.81
303.15 K	1197.7	71.76
308.15 K	1194.8	56.41
313.1 K	1191.5	45.6
318.15 K	1188.4	37.32

CCCCn1cc[n+](C)c1.F[B-](F)(F)F [1-butyl-3-methylimidazolium tetrafluoroborate] + CN1CCCC1=O
[2], w1 = 1
Conditions	mass density [kg/m3]	viscosity [mPa·s]
298.15 K	1200.6	93.81
303.15 K	1197.7	71.76
308.15 K	1194.8	56.41
313.1 K	1191.5	45.6
318.15 K	1188.4	37.32

CN1CCCC1=O [N-methylpyrrolidone]
[1]
Conditions	mass density [kg/m3]	viscosity [mPa·s]
298.15 K	1028.3	1.683
303.15 K	1024.5	1.558
308.15 K	1020.1	1.47
313.1 K	1015.8	1.337
318.15 K	1011.7	1.248

CN1CCCC1=O [N-methylpyrrolidone] + CCCCn1cc[n+](C)c1.F[B-](F)(F)F
[2]
Conditions	mass density, 298.15 K [kg/m3]	mass density, 303.15 K [kg/m3]	mass density, 308.15 K [kg/m3]	mass density, 313.1 K [kg/m3]	mass density, 318.15 K [kg/m3]	viscosity, 298.15 K [mPa·s]	viscosity, 303.15 K [mPa·s]	viscosity, 308.15 K [mPa·s]	viscosity, 313.1 K [mPa·s]	viscosity, 318.15 K [mPa·s]
w2 = 0	1028.3	1024.5	1020.1	1015.8	1011.7	1.683	1.558	1.47	1.337	1.248
w2 = 0.5	1115.6	1111.8	1107.9	1104.1	1100.3	8.196	7.291	6.382	5.63	5.045
w2 = 0.6999	1148.8	1145.6	1142	1138.3	1135	19.33	16.03	13.51	11.63	10.07
w2 = 0.8981	1182	1179.4	1176.2	1173.1	1170.1	49.46	39.75	32.43	26.93	22.47
